Source: patent US20200010519A1, “NUCLEASE FUSIONS FOR ENHANCING GENOME EDITING BY HOMOLOGY-DIRECTED TRANSGENE INTEGRATION” (INSTITUT NATIONAL DE LA SANTE ET DE LA RECHERCHE …, priority 2017, published 2020)

Key:
[1] = test system: JAK (spacer 54); assay: Indel mutation patterns by deep sequencing of PCR amplicons, HEK293 cells; format: cell-based, human
[2] = test system: JAK and PCSK genes, AAVS1 locus; assay: Indel mutation patterns, all three guide RNAs taken together, HEK293 cells; format: cell-based, human; settings: compared to Cas9, three guide RNAs

Compound: O=c1cc(N2CCOCC2)oc2c(-c3cccc4c3sc3ccccc34)cccc12 [NU7441]
- reduction of the two most frequent mutations observed with Cas9 [1]: 10 fold
- indels with increased frequency that were deletions flanked by micro-homologies of 2 or more nucleotides [2]: 10 out of 12
